# Reference: ChEMBL document CHEMBL5241069, “A key review on oxadiazole analogs as potential methicillin-resistant Staphylococcus aureus (MRSA) activity: Structure-activity relationship studies” (Eur J Med Chem, 2021)
# Experiments:
# Staphylococcus aureus [1] = assay: Antibacterial activity against methicillin resistant Staphylococcus aureus 42 assessed as inhibition of bacterial growth; type: functional
# Staphylococcus aureus [2] = assay: Antibacterial activity against methicillin resistant Staphylococcus aureus 181 assessed as inhibition of bacterial growth; type: functional
# Staphylococcus aureus [3] = assay: Antibacterial activity against methicillin resistant Staphylococcus aureus 128 assessed as inhibition of bacterial growth; type: functional
# Staphylococcus aureus [4] = assay: Antibacterial activity against methicillin resistant Staphylococcus aureus 747 assessed as inhibition of bacterial growth; type: functional
# Staphylococcus aureus [5] = assay: Antibacterial activity against methicillin resistant Staphylococcus aureus assessed as inhibition of bacterial growth by broth dilution technique; type: functional
# Staphylococcus aureus [6] = assay: Antibacterial activity against methicillin resistant Staphylococcus aureus assessed as inhibition zone by disc diffusion method; type: functional; also: test concentration or dose not given here
# Staphylococcus aureus [7] = assay: Antibacterial activity methicillin resistant Staphylococcus aureus 2658 RCMB assessed as inhibition of bacterial growth by broth microdilution method; type: functional
# Staphylococcus aureus [8] = assay: microbe, parasite or virus in culture; details: 032
# Description: Antibacterial activity against methicillin resistant Staphylococcus aureus 032 assessed as inhibition of bacterial growth by CLSI protocol based serial dilution method
# Staphylococcus aureus [9] = assay: Antibiofilm activity against methicillin resistant Staphylococcus aureus ATCC 43866 assessed as inhibition of biofilm formation incubated for 18 to 24 hrs by tissue culture plate method; type: functional; details: time 18-24 hrs
smiles,measurement,setting,value
O=c1c(Br)cnc2onc(-c3ccc(Cl)cc3)n12,MIC,Staphylococcus aureus [1],96.4 µg/mL
same,MIC,Staphylococcus aureus [2],53.6 µg/mL
same,MIC,Staphylococcus aureus [3],96.3 µg/mL
same,MIC,Staphylococcus aureus [4],59.4 µg/mL
O=c1c(Br)cnc2onc(-c3cccc(F)c3F)n12,MIC,Staphylococcus aureus [1],20.8 µg/mL
same,MIC,Staphylococcus aureus [2],42.1 µg/mL
same,MIC,Staphylococcus aureus [3],37.8 µg/mL
same,MIC,Staphylococcus aureus [4],42.1 µg/mL
CCCC(O)C/C=C/CCCCCCc1nnc(-c2ccco2)o1 (centres undefined),MIC,Staphylococcus aureus [5],12.5 µg/mL
same,inhibition zone (IZ),Staphylococcus aureus [6],18.3 mm
Cc1nc(-c2ccc(C(C)(C)C)cc2)sc1-c1nnc(NC(=N)N2CCN(C)CC2)o1,MIC,Staphylococcus aureus [7],25 µg/mL
Cc1cc(C)c2occ(/C=C(/c3ccc([N+](=O)[O-])cc3)c3noc(C)n3)c(=O)c2c1,MIC,Staphylococcus aureus [8],> 32 µg/mL
O=c1c(Br)cnc2onc(-c3ccc(Br)cc3)n12,MIC,Staphylococcus aureus [1],114 µg/mL
same,MIC,Staphylococcus aureus [2],≥ 125 µg/mL
same,MIC,Staphylococcus aureus [3],120 µg/mL
same,MIC,Staphylococcus aureus [4],≥ 125 µg/mL
Cc1nc(/C(=C\c2coc3ccc(Cl)cc3c2=O)c2ccc([N+](=O)[O-])cc2)no1,MIC,Staphylococcus aureus [8],> 32 µg/mL
Cc1nc(/C(=C\c2coc3ccc(F)cc3c2=O)c2ccc([N+](=O)[O-])cc2)no1,MIC,Staphylococcus aureus [8],> 32 µg/mL
CCCCCCCC/C=C/CCCCCCc1nnc(-c2ccco2)o1,MIC,Staphylococcus aureus [5],12.5 µg/mL
same,inhibition zone (IZ),Staphylococcus aureus [6],20.8 mm
Cc1ccc2occ(/C=C(/c3ccc([N+](=O)[O-])cc3)c3noc(C)n3)c(=O)c2c1,MIC,Staphylococcus aureus [8],> 32 µg/mL
Cn1c(-c2nnc(Cc3ccccc3)o2)cc(Br)c1Br,MIC,Staphylococcus aureus [9],6.25 µg/mL
CCCCCCCC/C=C/CCCCCCc1nnc(-c2ccccc2Cl)o1,MIC,Staphylococcus aureus [5],12.5 µg/mL
same,inhibition zone (IZ),Staphylococcus aureus [6],16.6 mm
Cc1nc(/C(=C\c2coc3cc(C)c(Cl)cc3c2=O)c2ccc([N+](=O)[O-])cc2)no1,MIC,Staphylococcus aureus [8],16 µg/mL
Cc1nc(-c2ccc(C(C)(C)C)cc2)sc1-c1nnc(NC(=N)N)o1,MIC,Staphylococcus aureus [7],6.25 µg/mL
Cc1nc(-c2ccc(C(C)(C)C)cc2)sc1-c1nnc(NC(=N)c2ccccn2)o1,MIC,Staphylococcus aureus [7],> 50 µg/mL
Cc1nc(-c2ccc(C(C)(C)C)cc2)sc1-c1nnc(NC(=N)c2cccnc2)o1,MIC,Staphylococcus aureus [7],> 50 µg/mL
CCCCC/C=C/CCC(O)CCCCCCc1nnc(-c2ccccc2Cl)o1 (centres undefined),MIC,Staphylococcus aureus [5],12.5 µg/mL
same,inhibition zone (IZ),Staphylococcus aureus [6],19.7 mm
Cc1nc(-c2ccc(C(C)(C)C)cc2)sc1-c1nnc(NN)o1,MIC,Staphylococcus aureus [7],6.25 µg/mL
CCCC(O)C/C=C/CCCCCCc1nnc(-c2ccccc2Cl)o1 (centres undefined),MIC,Staphylococcus aureus [5],12.5 µg/mL
same,inhibition zone (IZ),Staphylococcus aureus [6],19.5 mm
CCCCCCCCCCCCCCC(Br)c1nnc(-c2ccco2)o1 (centres undefined),MIC,Staphylococcus aureus [5],12.5 µg/mL
same,inhibition zone (IZ),Staphylococcus aureus [6],21.6 mm
O=c1c(F)cnc2onc(-c3cccc(Cl)c3Cl)n12,MIC,Staphylococcus aureus [1],101 µg/mL
same,MIC,Staphylococcus aureus [2],≥ 125 µg/mL
same,MIC,Staphylococcus aureus [3],≥ 125 µg/mL
same,MIC,Staphylococcus aureus [4],≥ 125 µg/mL
Cn1c(-c2nnc(/C=C/c3ccccc3)o2)cc(Br)c1Br,MIC,Staphylococcus aureus [9],6.25 µg/mL
O=c1c(Br)cnc2onc(-c3c(F)cccc3F)n12,MIC,Staphylococcus aureus [1],15.8 µg/mL
same,MIC,Staphylococcus aureus [2],40.2 µg/mL
same,MIC,Staphylococcus aureus [3],32.4 µg/mL
same,MIC,Staphylococcus aureus [4],40.2 µg/mL
CCCCC/C=C/CCC(O)CCCCCCc1nnc(-c2ccco2)o1 (centres undefined),MIC,Staphylococcus aureus [5],12.5 µg/mL
same,inhibition zone (IZ),Staphylococcus aureus [6],13.2 mm
Cn1c(-c2nnc(-c3ccc(Cl)cc3)o2)cc(Br)c1Br,MIC,Staphylococcus aureus [9],1.56 µg/mL
C=Cc1ccc(Oc2nnc(-c3cc(Br)c(Br)n3C)o2)c(OC)c1,MIC,Staphylococcus aureus [9],25 µg/mL
O=c1c(F)cnc2onc(-c3cccc(F)c3F)n12,MIC,Staphylococcus aureus [1],115 µg/mL
same,MIC,Staphylococcus aureus [2],≥ 125 µg/mL
same,MIC,Staphylococcus aureus [3],≥ 125 µg/mL
same,MIC,Staphylococcus aureus [4],≥ 125 µg/mL
CCCCCCCCCCCCCCc1nnc(-c2ccccc2Cl)o1,MIC,Staphylococcus aureus [5],12.5 µg/mL
same,inhibition zone (IZ),Staphylococcus aureus [6],12.1 mm
O=c1c(F)cnc2onc(-c3ccccc3Cl)n12,MIC,Staphylococcus aureus [1],≥ 125 µg/mL
same,MIC,Staphylococcus aureus [2],≥ 125 µg/mL
same,MIC,Staphylococcus aureus [3],≥ 125 µg/mL
same,MIC,Staphylococcus aureus [4],≥ 125 µg/mL
Cn1c(-c2nnc(-c3cc(Br)c(Br)[nH]3)o2)cc(Br)c1Br,MIC,Staphylococcus aureus [9],1.56 µg/mL
